Values of other authors as cited in US10266741B2, “Apparatus and method for addition of ADH enzyme inhibitors to existing engine cooling systems” (priority 2016, dated 2019).

Tested on: humans
Details: ingestion, Federal Register Vol. 63, No. 27, Feb. 10, 1998

In the case of `OCCO` [EG, ethylene glycol], the “known toxin to humans at relatively low levels (reported as low as)” value is listed as 1,570 mg/kg.
